In US20060004088A1, “Furan derivatives for preventing and curing osteoporosis and pharmaceutical compositions containing the same” (OCT INC., priority 2002, published 2006):

Test system: osteoclast pregenitor cells
Assay: Inhibition rates of furan derivatives versus osteoclast formation (TRAP staining)
Format: cell-based, mice
Details: TRAP-positive multinucleated cells, untreated control set as 100%
Description: First, bone marrow cells were isolated, as follow. After sacrificing 7-9 week female mice by cervical dislocation, femur and tibia were excised aseptically while removing attached soft tissues. After cutting both ends of long bones, 1 ml of an enzyme solution, containing 0.1% collagenase (Gibco), 0.05% trypsin and 0.5 mM EDTA (Gibco), was injected to the bone marrow cavity at one end using a syringe with a 26-guage needle, and bone marrow was then collected. After shaking the recovered bone marrow for 30 min, bone marrow cells were collected, and cultured in α-minimum essential medium (α-MEM) supplemented with 10% FBS for 24 hrs. Then, non-adherent cells were collected, which are osteoclast pregenitors, aliquotted onto culture plates at a density of 2×10^5 cells per well, and cultured for 8 days in α-MEM supplemented with 20 ng/ml of macrophage-colony stimulating factor (M-CSF, Peprotech, USA) and 30 ng/ml RANKL (Peprotech, USA). During the 8 days of culturing, the cells were treated with the Compound 1. Thereafter, osteoclast formation was investigated by fixing the cultured cells and then carrying out TRAP staining, as described in the following Experimental Example 2.2. In addition, resorption activity of osteoclasts was investigated by measuring the absorption area after removing osteoclasts in cultures in calcium phosphate-coated plates, as described in Experimental Example 2.3, below.
After cell culture, the adherent cells were washed with PBS, and TRAP staining was performed, as follows. After being fixed with citrate-acetate-formaldehyde for 5 min, the cells were incubated for 1 hr in acetate buffer (prewarmed at 37° C., pH 5.0) containing naphthol AS-BI phosphate, fast Garnet GBC and 7 mM tartrate buffer (pH 5.0). TRAP-positive multinucleated cells having 3 or more nuclei were considered as osteoclasts.
Osteoclast pregenitor cells were isolated, and their differentiation to mature osteoclasts was induced, according to the same method as in the Experimental Example 2-1, while treated with each of the furan derivatives of the present invention. According to the same method as in the Experimental Example 2-2, TRAP staining performed, and TRAP-positive multinucleated cells were counted. An inhibition rate of each furan derivative against osteoclast formation was expressed as percentage, wherein the number of stained cells in a control not treated the furan derivative was arbitrarily set as 100% (Tables 14 to 16).

Structure (SMILES)	Inhibition rate against osteoclast formation, % (0.1 μM) [%]	Inhibition rate against osteoclast formation, % (1 μM) [%]	Inhibition rate against osteoclast formation, % (10 μM) [%]
O=C(O)c1ccc(COc2cc(Cl)ccc2Cl)o1 [Compound 109]	0	0	3.25
COc1ccccc1NC(=O)c1ccc(COc2cc(C)ccc2C)o1 [Compound 157]	4.87	10.71	97.46
O=C(Nc1ccccc1[N+](=O)[O-])c1ccc(COc2ccccc2Cl)o1 [Compound 183]	0	0	57.39
COC(=O)c1ccc(COc2ccc(I)cc2)o1 [Compound 79]	0	0	34.65
O=C(Nc1cccc(Br)c1)c1ccc(COc2ccc(F)cc2)o1 [Compound 140]	0	0	11.93
COc1ccccc1OCc1ccc(C(=O)Nc2ccccc2Cl)o1 [Compound 174]	0	0	14.11
Cc1ccc(OCc2ccc(C(=O)Nc3ccc(F)cc3)o2)c([N+](=O)[O-])c1 [Compound 147]	6.11	19.4	99.72
CCCc1ccc(OCc2ccc(C(=O)O)o2)cc1 [Compound 100]	0	0	10.46
C=CCc1ccc(OCc2ccc(C(=O)OC)o2)c(OC)c1 [Compound 59]	0	0	15.95
O=C(O)c1ccc(COc2cccc3ccccc23)o1 [Compound 117]	0	0	5.86
O=C(Nc1ccc(I)cc1)c1ccc(COc2ccccc2Br)o1 [Compound 190]	0	0	5.12
COc1ccc(NC(=O)c2ccc(COc3ccccc3Cl)o2)cc1Cl [Compound 142]	0	0	32.17
O=C(c1ccc(COc2ccccc2Br)o1)N1CCCCCC1 [Compound 128]	6.54	0	97.65
O=C(Nc1cc(F)ccc1F)c1ccc(COc2ccccc2Cl)o1 [Compound 161]	0	0	11.33
Cc1cc(OCc2ccc(C(=O)O)o2)ccc1Cl [Compound 119]	0	0	37.02
COc1ccccc1NC(=O)c1ccc(COc2ccccc2OC)o1 [Compound 166]	0	0	1.08
CCOc1ccccc1NC(=O)c1ccc(COc2ccc(Cl)cc2[N+](=O)[O-])o1 [Compound 144]	0	21.95	85.25
O=Cc1ccc(COC(=O)C(c2ccccc2)(c2ccccc2)c2ccccc2)o1 [Compound 40]	0	16.67	43.33
O=C(Nc1cccc([N+](=O)[O-])c1)c1ccc(COc2ccc(I)cc2)o1 [Compound 191]	0	0	8.06
O=C(Nc1ccc(F)c(F)c1)c1ccc(COc2ccc(I)cc2)o1 [Compound 143]	0	0	10.63

Structure (SMILES)	Inhibition rate against osteoclast formation, % (0.1 μM) [%]	Inhibition rate against osteoclast formation, % (1 μM) [%]	Inhibition rate against osteoclast formation, % (10 μM) [%]
Cc1ccc(OCc2ccc(C(=O)Nc3ccc(F)c(F)c3)o2)cc1C [Compound 186]	0	0	21.09
CC1CCN(C(=O)c2ccc(COc3cc(Cl)ccc3Cl)o2)CC1 [Compound 124]	0	0	7.62
Cc1cc(OCc2ccc(C(=O)Nc3cccc(C)c3C)o2)ccc1Cl [Compound 172]	0	0	11.08
COC(=O)c1ccccc1NC(=O)c1ccc(COc2ccc(C)c(C)c2)o1 [Compound 180]	0	0	8.15
COc1ccc(C)cc1NC(=O)c1ccc(COc2cccc(Cl)c2)o1 [Compound 171]	0	0	0.42
NC(=O)c1ccc(NC(=O)c2ccc(COc3cc(Cl)ccc3Cl)o2)cc1 [Compound 148]	0	3.05	47.55
CC(=O)Nc1cccc(NC(=O)c2ccc(COc3c(F)c(F)c(F)c(F)c3F)o2)c1 [Compound 187]		37.05	36.74
CC(C)c1ccc(OCc2ccc(C(=O)O)o2)cc1 [Compound 114]	0	0	4.2
CC(C)NC(=O)c1ccc(CNc2cc(Cl)ccc2Cl)o1 [Compound 130]	0	0	7.84
CCc1ccc(OCc2ccc(C(=O)Nc3cc(C)cc(C)c3)o2)cc1 [Compound 169]	0	0	21.04
COc1ccc(NC(=O)c2ccc(COc3cc(Cl)ccc3Cl)o2)c(OC)c1 [Compound 145]	0	5.98	83.3
COc1cc([N+](=O)[O-])ccc1NC(=O)c1ccc(COc2ccc(Cl)cc2)o1 [Compound 182]	0	0	4.34
O=C(Nc1cc(C(F)(F)F)ccc1Cl)c1ccc(COc2ccc(Cl)cc2)o1 [Compound 181]	0	0	56.96
CC(C)(C)c1ccc(OCc2ccc(C(=O)NC3CCCCC3)o2)cc1 [Compound 134]	0	0	21.42
O=Cc1ccc(COC(=O)Nc2ccc(Cl)c(Cl)c2)o1 [Compound 54]	0	0	10
COC(=O)c1ccc(COc2cc(C)ccc2C(C)C)o1 [Compound 68]	0	0	
CCC(C)NC(=O)c1ccc(COc2ccc(I)cc2)o1 (stereo not shown) [Compound 121]	0	0	7.12
O=C(O)c1ccc(CSCc2ccccc2)o1 [Compound 120]	0	0	27.99
COC(=O)c1ccc(COc2ccc(Cl)cc2)o1 [Compound 80]	0	0	15.19
COC(=O)c1ccccc1NC(=O)c1ccc(COc2ccc(Cl)cc2Cl)o1 [Compound 167]	0	22.42	96.47
